The values below are quoted from earlier work in patent publication US20250222021A1, “METHOD OF TREATING ACID-BASE DISORDERS” (Renosis, Inc., priority 2017, published 2025).

This series relates to adult patients with CKD and serum bicarbonate 16 to 20 mmol/L. The settings on record: 2 years.

As for `O=C([O-])O.[Na+]` [sodium bicarbonate], the “Patients who developed ESRD” value is reported as 6.5%, the “Patients with rapid progression (rapid decline of CrCl >3 ml/min per 1.73 m^2/yr)” value was 9%, the “Relative risk of ESRD versus control” value is 0.13 and the “Relative risk of rapid progression versus control” value is on record as 0.15. Moreover, the “Decrease in creatinine clearance (CrCl)” value (average 1.82 g/day bicarbonate) was 1.88 ml/min per 1.73 m^2.
